Assay results: patent US20100266503A1, “Breast Cancer Methods, Medicaments and Agents” (priority 2007, published 2010)

Legend:
[1] = test system: notch intracellular domain in MCF-7 cells; experiment: Staining for notch intracellular domain expression (surrogate marker for GS activity); assay type: cell-based; details: 48 hours; Gefitinib 15 μM, U0126 10 μM, PD98059 10 μM
Description: (§1) (A) GS activity as measured by a fluorescent assay in MCF7 breast cancer cell lines and MCF10A normal cell lines, with and without treatment with the ERK1/2 inhibitor U0126. (B) Sections of MCF7 breast cancer cell lines stained for notch intracellular domain expression (as a surrogate marker for GS activity). Shown are sections of cells untreated (NO), and cells treated with oestrogen (E2), faslodex (FAS), Gefitinib (Gef), GSI1, and the ERK1/2 inhibitors U0126 (U) and. PD98059 (PD). (C) Sections of MCF10A normal cell lines stained for notch intracellular domain expression. Shown are sections of cells untreated (NO), and cells treated with Gefitinib (Gef) and PD98059 (PD).
(§2) Cancer and normal cell lines were treated with oestrogen (E2), faslodex (FAS), Gefitinib (Gef 15 μM), GSI1, and the ERK1/2 inhibitors U0126 (U) (10 μM) and PD98059 (PD) (10 μM) for 48 hours and a fluorescent assay performed to measure GS activity. The figures show relative fluorescence therefore the amount of fluorescence in the treated cells relative to the untreated minus background (these figures are corrected for background).

[2] = test system: GS activity in MCF7 breast cancer cell lines
Description: as §1, §2

[3] = test system: GS activity in MCF10A normal cell lines; details: 10 μM, 48 hours
Description: as §1, §2

[4] = test system: GS Activity in MDA-MB 231 cell line; details: 48 h vs vehicle control
Protocol: GS Activity Assay was performed on MDA-MB 231 cell line. Cells were treated with a vehicle control and a U0126 inhibitor for 48 h.

Compound	notch intracellular domain expression localized to the nucleus compared to untreated cells [1]	increase in GS activity (relative fluorescence vs untreated) ([2]; 10 μM, 48 hours)	increase in GS activity ([2]; breast cancer cells, summary statement) [fold]	increase in GS activity (relative fluorescence vs untreated) [3]	GS Activity [4]
C[C@]12CC[C@@H]3c4ccc(O)cc4C[C@@H](CCCCCCCCC[S+]([O-])CCCC(F)(F)C(F)(F)F)[C@H]3[C@@H]1CC[C@@H]2O (some centres unmarked) [Faslodex]	all but the Faslodex appear to increase notch intracellular domain expression	–	–	–	–
COc1cc2ncnc(Nc3ccc(F)c(Cl)c3)c2cc1OCCCN1CCOCC1 [Gefitinib]	appear to increase notch intracellular domain expression localized to the nucleus	–	–	–	–
COc1cccc(-c2cc(=O)c3ccccc3o2)c1N [PD98059]	appear to increase notch intracellular domain expression localized to the nucleus	–	–	–	–
N#CC(=C(/N)Sc1ccccc1N)/C(C#N)=C(\N)Sc1ccccc1N [U0126]	appear to increase notch intracellular domain expression localized to the nucleus	6-12 fold	9	approximately 4 fold	dose dependant increase of GS Activity
